From ChEMBL document CHEMBL1201862, “PubChem BioAssay data set” (2004)
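Step 1: Grow cells in 96-well plates. Step 2: Expose to compound for 48 hours at 5 concentrations. Step 3: Interpolate endpoints linearly; if unreached, use highest concentration. At the GI50, growth is halved.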 The source made the active and inactive calls. No stated cut-off is given here; in the data, active = GI50 up to about 1.1 µM and inactive = higher. Where a SMILES comes first, the peptide text is derived from it. [ ]: non-standard residue; d: D form. The star is where a group is joined. Cbz = O=C(OCc1ccccc1)*; Aib = CC(C)(N)C(=O)O; OBn = c1ccc(CO*)cc1

Legend:
Assay in all cases: NCI-60 cell line screen, 48 h
[1] = system: HT-29
[2] = system: SW-620
[3] = system: NCI/ADR-RES
[4] = system: EKVX
[5] = system: UACC-62
[6] = system: K562
[7] = system: SNB-75
[8] = system: 786-0
[9] = system: BT-549
[10] = system: CCRF-CEM
[11] = system: SF-268
[12] = system: OVCAR-5
[13] = system: HOP-92
[14] = system: SN12C
[15] = system: MCF7
[16] = system: Malme-3M
[17] = system: Hs-578T
[18] = system: HCC 2998
[19] = system: PC-3
[20] = system: RXF 393

| Compound | GI50 [1] | GI50 [2] | GI50 [3] | GI50 [4] | GI50 [5] | GI50 [6] | GI50 [7] | GI50 [8] | GI50 [9] | GI50 [10] | GI50 [11] | GI50 [12] | GI50 [13] | GI50 [14] | GI50 [15] | GI50 [16] | GI50 [17] | GI50 [18] | GI50 [19] | GI50 [20] |
| --- | --- | --- | --- | --- | --- | --- | --- | --- | --- | --- | --- | --- | --- | --- | --- | --- | --- | --- | --- | --- |
| Nc1nc(Cl)c2ncn(Cc3ccccc3CCl)c2n1 | 3.85 µM (inactive) | 3.3 µM (inactive) | 4.52 µM (inactive) | 15.9 µM (inactive) | 2.21 µM (inactive) | 4.43 µM (inactive) | 8.13 µM (inactive) | 16.9 µM (inactive) | 8.18 µM (inactive) | 17.7 µM (inactive) | 4.71 µM (inactive) | 19.9 µM (inactive) | 6.52 µM (inactive) | 2.74 µM (inactive) | 5.97 µM (inactive) | 3.36 µM (inactive) | 7.76 µM (inactive) | 2.99 µM (inactive) | 15 µM (inactive) |  |
| CN(C)CCCn1c(Cn2nc3ccccc3n2)nc2cc(C(F)(F)F)ccc21 | 19.7 µM (inactive) | 34.2 µM (inactive) | 23.4 µM (inactive) | 28.3 µM (inactive) | 19.2 µM (inactive) | 16.5 µM (inactive) |  | 19.3 µM (inactive) | 16.8 µM (inactive) | 13.2 µM (inactive) | 42 µM (inactive) | > 100 µM (inactive) | 8.71 µM (inactive) | 47.8 µM (inactive) | 22 µM (inactive) | 11.6 µM (inactive) | 36.2 µM (inactive) | 7.6 µM (inactive) | 31.6 µM (inactive) | 22.1 µM (inactive) |
| c1cncc(C(Nc2cccc3cccnc23)Nc2cccc3cccnc23)c1 | > 100 µM (inactive) | > 100 µM (inactive) | > 100 µM (inactive) | 69.7 µM (inactive) | > 100 µM (inactive) | > 100 µM (inactive) | 37.8 µM (inactive) | > 100 µM (inactive) | > 100 µM (inactive) | 66.1 µM (inactive) | 50.5 µM (inactive) | > 100 µM (inactive) | > 100 µM (inactive) | > 100 µM (inactive) | > 100 µM (inactive) |  | > 100 µM (inactive) | > 100 µM (inactive) | > 100 µM (inactive) | 77.3 µM (inactive) |
| CCOc1cc2c(cc1O)C(N)C[C@@H]1[C@@H]2CC[C@]2(C)[C@@H](O)CC[C@@H]12 (some centres not stated) | 42.7 µM (inactive) | 34 µM (inactive) | > 100 µM (inactive) | 80.9 µM (inactive) |  | 18.8 µM (inactive) | 15 µM (inactive) | 40.3 µM (inactive) | 40.9 µM (inactive) | 22.6 µM (inactive) | 61.7 µM (inactive) | > 100 µM (inactive) | 25.6 µM (inactive) |  | 40.8 µM (inactive) |  | 54.7 µM (inactive) | 36.7 µM (inactive) | 34.4 µM (inactive) | 56.5 µM (inactive) |
| C=CCC1C(=O)Nc2cccc3ncn(c23)C1=O (configuration not stated) | > 100 µM (inactive) | > 100 µM (inactive) | > 100 µM (inactive) | > 100 µM (inactive) | > 100 µM (inactive) | > 100 µM (inactive) | > 100 µM (inactive) | > 100 µM (inactive) | > 100 µM (inactive) | > 100 µM (inactive) | > 100 µM (inactive) | > 100 µM (inactive) | > 100 µM (inactive) | > 100 µM (inactive) | > 100 µM (inactive) | > 100 µM (inactive) | > 100 µM (inactive) |  | > 100 µM (inactive) | > 100 µM (inactive) |
| CC(C)(CCC(C)(C)c1ccccc1)c1ccccc1 | 14.5 µM (inactive) | 17.2 µM (inactive) | 19.5 µM (inactive) | 17.7 µM (inactive) | 19 µM (inactive) | 21.8 µM (inactive) | 18 µM (inactive) | 15.7 µM (inactive) | 20.2 µM (inactive) | 18.4 µM (inactive) | 17.3 µM (inactive) | 18.8 µM (inactive) | 19 µM (inactive) | 18.2 µM (inactive) | 17.9 µM (inactive) | 16 µM (inactive) | 22.1 µM (inactive) |  | 30.8 µM (inactive) | 12.9 µM (inactive) |
| CC(C)(C)OC(=O)NC(Cc1ccc(OCc2ccccc2)cn1)C(=O)O (configuration not stated) | > 100 µM (inactive) | > 100 µM (inactive) | > 100 µM (inactive) | > 100 µM (inactive) |  | > 100 µM (inactive) |  | > 100 µM (inactive) | > 100 µM (inactive) | > 10 µM (inactive) | > 100 µM (inactive) | > 100 µM (inactive) | > 100 µM (inactive) | > 100 µM (inactive) | > 100 µM (inactive) | > 100 µM (inactive) | > 100 µM (inactive) | > 100 µM (inactive) | > 100 µM (inactive) | > 100 µM (inactive) |
| O=C(NO)c1ccc(OCc2cccc(Cl)c2)cc1 | 8.45 µM (inactive) | 5.08 µM (inactive) | 2.13 µM (inactive) | 10.8 µM (inactive) | 5.4 µM (inactive) | 7.96 µM (inactive) | 9.2 µM (inactive) | 6.11 µM (inactive) | 13.7 µM (inactive) | 2.66 µM (inactive) | 10.7 µM (inactive) | 6.15 µM (inactive) | 11.9 µM (inactive) | 8.89 µM (inactive) | 12.7 µM (inactive) |  | 16.2 µM (inactive) | 5.87 µM (inactive) | 6.64 µM (inactive) | 10.2 µM (inactive) |
| CCCCCCCCCCOc1ccc(/N=N/c2nnc(-c3ccc(OCCCCC)cc3)s2)cc1 | > 100 µM (inactive) | > 100 µM (inactive) | > 100 µM (inactive) | > 100 µM (inactive) | 48 µM (inactive) | > 100 µM (inactive) |  | > 100 µM (inactive) | > 100 µM (inactive) | > 100 µM (inactive) | > 100 µM (inactive) | > 100 µM (inactive) | > 100 µM (inactive) | > 100 µM (inactive) | 39.2 µM (inactive) | > 100 µM (inactive) | > 100 µM (inactive) | > 100 µM (inactive) | > 100 µM (inactive) | 65 µM (inactive) |
| COc1ccc(CNC(C)C(=O)O)cc1 (configuration not stated) | > 100 µM (inactive) | > 100 µM (inactive) | > 100 µM (inactive) | > 100 µM (inactive) | > 100 µM (inactive) | > 100 µM (inactive) | > 100 µM (inactive) | > 100 µM (inactive) | > 100 µM (inactive) | 19.7 µM (inactive) | > 100 µM (inactive) | > 100 µM (inactive) | > 100 µM (inactive) | > 100 µM (inactive) | > 100 µM (inactive) | > 100 µM (inactive) | > 100 µM (inactive) |  | > 100 µM (inactive) | > 100 µM (inactive) |
| CC1=C(C#N)S(=O)(=O)c2c(oc(C)c2C)N1 | > 100 µM (inactive) | > 100 µM (inactive) | > 100 µM (inactive) | > 100 µM (inactive) | > 100 µM (inactive) | > 100 µM (inactive) | > 100 µM (inactive) | > 100 µM (inactive) | > 100 µM (inactive) |  | > 100 µM (inactive) | > 100 µM (inactive) | > 100 µM (inactive) | > 100 µM (inactive) | > 100 µM (inactive) | > 100 µM (inactive) | > 100 µM (inactive) | > 100 µM (inactive) | > 100 µM (inactive) |  |
| CC(NC(=O)C(C)(C)NC(=O)C(CC(=O)OCc1ccccc1)NC(=O)OCc1ccccc1)C(N)=O (configuration not stated) (Cbz-Asp(OBn)-[Aib]-Ala-NH2; configuration not given here) | > 100 µM (inactive) | > 100 µM (inactive) | > 100 µM (inactive) | > 100 µM (inactive) | > 100 µM (inactive) | > 100 µM (inactive) |  | > 100 µM (inactive) | > 100 µM (inactive) | > 100 µM (inactive) | > 100 µM (inactive) | > 100 µM (inactive) | > 100 µM (inactive) | > 100 µM (inactive) | > 100 µM (inactive) | > 100 µM (inactive) | > 100 µM (inactive) | > 100 µM (inactive) | > 100 µM (inactive) | > 100 µM (inactive) |
| CCCCOC(=O)NC(c1ccccc1)C(O)C(=O)OC1C[C@@]2(O)C(OC(=O)c3ccccc3)C3[C@](C)(C(=O)[C@H](OC(C)=O)C(=C1C)C2(C)C)[C@@H](O)C[C@H]1OC[C@@]31OC(C)=O (some centres not stated) | 0.00228 µM (active) | 0.00627 µM (active) | 2 µM (inactive) | 0.0741 µM (active) | 0.0134 µM (active) | 0.00447 µM (active) | 0.0179 µM (active) | 0.00875 µM (active) | 0.0148 µM (active) | 0.00425 µM (active) | 0.0113 µM (active) | 0.015 µM (active) | 5.7 µM (inactive) | 0.0157 µM (active) | 0.00248 µM (active) |  | 0.00191 µM (active) | 0.011 µM (active) | 0.0171 µM (active) | 0.0156 µM (active) |
| Cc1ccc(S(=O)(=O)c2c(O)c3ccccc3n(C)c2=O)cc1 | > 100 µM (inactive) | > 100 µM (inactive) | > 100 µM (inactive) | > 100 µM (inactive) | > 100 µM (inactive) | > 100 µM (inactive) | > 100 µM (inactive) | > 100 µM (inactive) | > 100 µM (inactive) | > 100 µM (inactive) | > 100 µM (inactive) | > 100 µM (inactive) | > 100 µM (inactive) | > 100 µM (inactive) | > 100 µM (inactive) | > 100 µM (inactive) | > 100 µM (inactive) |  | > 100 µM (inactive) | > 100 µM (inactive) |
